According to PubChem BioAssay AID330 (DTP/NCI, 2004):
Several values for one entry are separate records, joined by “and”; a condition that tells them apart may be missing. Equal values may be shown once. Toxic doses and inconclusive results are not listed. Rule for the calls: active = survival T/C of 150% or more; inactive = T/C below 125% in these data.

Tested on: P388 leukemia ip, CD2F1 mice, survival T/C
Experiment: NCI In Vivo Anticancer Drug Screen. Data for tumor model P388 Leukemia (intraperitoneal) in CD2F1 (CDF1) mice
Settings: endpoint: median survival time, higher = longer survival
Method in brief: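 Mice carrying the transplanted tumor received test compound or vehicle. Survival was recorded in each group, and the value is the treated-group measurement divided by that of the vehicle-treated control group.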

[1] = dose: 50.0 mg/kg/injection, schedule: Q01DX009 (ip), vehicle: Klucel (hydroxypropylcellulose) (HPC)
[2] = dose: 100.0 mg/kg/injection, schedule: Q01DX009 (ip), vehicle: Klucel (hydroxypropylcellulose) (HPC)
[3] = dose: 200.0 mg/kg/injection, schedule: Q01DX009 (ip), vehicle: Klucel (hydroxypropylcellulose) (HPC)
[4] = dose: 50.0 mg/kg/injection, schedule: Q01DX009 (ip), vehicle: saline with Tween-80
[5] = dose: 100.0 mg/kg/injection, schedule: Q01DX009 (ip), vehicle: saline with Tween-80
[6] = dose: 200.0 mg/kg/injection, schedule: Q01DX009 (ip), vehicle: saline with Tween-80
[7] = dose: 15.0 mg/kg/injection, schedule: Q01DX005 (ip), vehicle: saline with Tween-80
[8] = dose: 30.0 mg/kg/injection, schedule: Q01DX005 (ip), vehicle: saline with Tween-80
[9] = dose: 60.0 mg/kg/injection, schedule: Q01DX005 (ip), vehicle: saline with Tween-80
[10] = dose: 50.0 mg/kg/injection, schedule: Q01DX005 (ip), vehicle: saline with Tween-80

Measured: T/C

Cc1ccc(S(=O)(=O)N=S(CCO)CCO)cc1
inactive: [1] 106 % of control | [2] 110 % of control | [3] 108 % of control | dose: 400.0 mg/kg/injection, schedule: Q01DX009 (ip), vehicle: Klucel (hydroxypropylcellulose) (HPC) 107 % of control

CCC/C(=N\O)S(=O)(=O)c1ccc(NN=O)nc1
inactive: dose: 3.12 mg/kg/injection, schedule: Q01DX009 (ip), vehicle: saline 107 % of control | dose: 6.25 mg/kg/injection, schedule: Q01DX009 (ip), vehicle: saline 108 % of control and 110 % of control | dose: 12.5 mg/kg/injection, schedule: Q01DX009 (ip), vehicle: saline 116 % of control and 118 % of control
active: dose: 25.0 mg/kg/injection, schedule: Q01DX009 (ip), vehicle: saline 150 % of control

COc1cc2c(C)nc3c4cc5c(cc4ccc3c2cc1OC)OCO5
inactive: dose: 25.0 mg/kg/injection, schedule: Q01DX009 (ip), vehicle: water 108 % of control | dose: 50.0 mg/kg/injection, schedule: Q01DX009 (ip), vehicle: water 95 % of control

CCOC(=O)CC(=O)Nc1cc2ccc(OC)c(OC)c2cc1C(=O)OCC
inactive: dose: 25.0 mg/kg/injection, schedule: Q01DX009 (ip), vehicle: other 88 % of control | dose: 50.0 mg/kg/injection, schedule: Q01DX009 (ip), vehicle: other 88 % of control | dose: 100.0 mg/kg/injection, schedule: Q01DX009 (ip), vehicle: other 96 % of control | dose: 200.0 mg/kg/injection, schedule: Q01DX009 (ip), vehicle: other 87 % of control | dose: 400.0 mg/kg/injection, schedule: Q01DX009 (ip), vehicle: other 105 % of control

COc1cc2c(cc1O)C(O)CCCC2 (stereo unspecified)
inactive: [4] 107 % of control | [5] 108 % of control | [6] 110 % of control

N#CCCCCC/C=C/CCCCCCC1C=CCC1 (stereo unspecified)
inactive: dose: 100.0 mg/kg/injection, schedule: Q01DX001 (ip), vehicle: saline 100 % of control | dose: 200.0 mg/kg/injection, schedule: Q01DX001 (ip), vehicle: saline 100 % of control | dose: 400.0 mg/kg/injection, schedule: Q01DX001 (ip), vehicle: saline 96 % of control

COCCOC(=O)CCCCC(=O)OCCOC
inactive: [5] 100 % of control | dose: 100.0 mg/kg/injection, schedule: Q04DX003 (ip), vehicle: saline sonified 100 % of control | [6] 104 % of control | dose: 200.0 mg/kg/injection, schedule: Q04DX003 (ip), vehicle: saline sonified 100 % of control | dose: 400.0 mg/kg/injection, schedule: Q01DX009 (ip), vehicle: saline with Tween-80 109 % of control | dose: 400.0 mg/kg/injection, schedule: Q04DX003 (ip), vehicle: saline sonified 95 % of control

CCOC(=O)c1cc(/C=C/c2cccc(Cl)c2)on1
inactive: [7] 93 % of control | [8] 100 % of control and 90 % of control | [9] 90 % of control | dose: 120.0 mg/kg/injection, schedule: Q01DX005 (ip), vehicle: saline with Tween-80 93 % of control | dose: 240.0 mg/kg/injection, schedule: Q01DX005 (ip), vehicle: saline with Tween-80 95 % of control

O=C1COC(c2ccccc2O)=NN1CCN1CCOCC1
inactive: [4] 103 % of control | [5] 103 % of control | [6] 94 % of control

Cc1cccc(Cl)c1NCCN1CCCC1
inactive: [7] 103 % of control | [8] 101 % of control | [9] 106 % of control and 108 % of control

C=CCNC(=S)N/N=C(/c1ccccn1)C(C)C
inactive: [10] 103 % of control | dose: 100.0 mg/kg/injection, schedule: Q01DX005 (ip), vehicle: saline with Tween-80 109 % of control

CC(NNC(=S)N(C)C1CCCCC1)c1cc2ccccc2cn1 (stereo unspecified)
inactive: dose: 6.25 mg/kg/injection, schedule: Q01DX005 (ip), vehicle: saline with Tween-80 107 % of control | dose: 12.5 mg/kg/injection, schedule: Q01DX005 (ip), vehicle: saline with Tween-80 120 % of control
active: [10] 151 % of control and 159 % of control

CC(C)(C)c1cc(C(=O)O)c(S)c(C(=O)O)c1
inactive: [1] 104 % of control and 109 % of control | [2] 102 % of control and 100 % of control | [3] 93 % of control
